Data published in US20260000710A1, “Novel Treatments for Cardiovascular Related Disease” (priority 2022, published 2026).

Tested on: AIM+ and AIM− CD4+ T cells from peptide-expanded PBMCs
Assay: TCRβ CDR3 sequencing (immunoSEQ) of sorted AIM+ and AIM− CD4+ T cells;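 note: genomic DNA from sorted cells as template, amplification bias-controlled two-step multiplex PCR, APOB6 pool at 10 µg/ml per peptide, CD40 blocking antibody added before restimulation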
Format: cell-based, human
Settings: for Log10 Odds Ratio: AIM+ vs AIM−
[1] = Donor 1, PBMCs expanded 14 days and restimulated 24 h with APOB6
[2] = Donor 6, PBMCs expanded 14 days and restimulated 24 h with APOB6
[3] = Donor 2, PBMCs expanded 14 days and restimulated 24 h with APOB6
[4] = Donor 4, PBMCs expanded 14 days and restimulated 24 h with APOB6
[5] = Donor 5, PBMCs expanded 14 days and restimulated 24 h with APOB6
[6] = Donor 3, PBMCs expanded 14 days and restimulated 24 h with APOB6

Description: To examine the clonotypic identities of autoreactive CD4^+ T cells, the hypervariable TCRβ DR3 region was sequenced using a DNA-based sequencing technique^42 (Adaptive Biotechnologies), which have been used to profile clonal populations of other self-antigen specific T cells^43. PBMCs from six HLA-typed donors (demographics and HLA-II alleles in Tables 5, 6) were expanded (14-days) and restimulated (24 h) with the APOB6 pool. To isolate viable responder and non-responder CD4^+ T cells from the same pool of stimulated PBMCs (schematic in FIG. 15A, gating strategy in FIG. 151B), the inventors used the AIM assay protocol (FIGS. 2A to 2D).
As a second control, unexpanded PBMCs (day 0 samples), sorted into naïve, central memory (TCM) and effector memory (TEM) CD4^+ T cells, were used (gating strategy in FIG. 15C). This allowed tracing the APOB6-specific AIM^+ T cell clones in naïve and memory T cell lineages. Genomic DNA, isolated from sorted AIM^− and AIM^+ Day 14 samples and naïve, TCM and TEM Day 0 samples from six donors, was used as the starting material for TCRVβ sequencing (schematic in FIG. 15A) using an optimized two-step, amplification bias-controlled multiplex-PCR-based approach^42,44 (immunoSEQ Human TCRB Assay, Adaptive Biotechnologies).
For isolation of APOB epitope-specific CD4^+ T cells, PBMCs were expanded with the APOB6pool (10 μg/ml per peptide). On Day 14, cultured cells were washed and re-stimulated with APOB6 (10 μg/ml) for 24 h (AIM assay protocol). 1 μg/ml of CD40 blocking antibody was added 15 min before stimulation. At the end of the stimulation period, cells were washed with FACS buffer (PBS w/o Ca/Mg, 2% FCS). Day 14 (APOB6 expanded and restimulated) and Day 0 (ex vivo samples with no in vitro stimulation) PBMC samples from six donors were resuspended in a staining master mix containing anti-human Fc-Block (Biolegend), fixable viability dye and antibodies against T cell and non-T cell (Dump) surface markers, activation markers and memory markers (antibody details in Table 4). Viability dye was used at 1:1000 dilution, antibodies were used at a final dilution of 1:100 (activation markers) and 1:200 (other extracellular markers). […] Gates were set based on unstimulated and PHA-L stimulated negative and positive controls, respectively. Antigen-specific AIM^+ and non-specific control AIM^− CD4^+ T cells from Day 14 samples and naïve (CD45RA^+CCR7^+), central memory (CD45RA^−CCR7^+, TCM) and effector memory (CD45RA^−CCR7^−, TEM) CD4^+ T cells from Day 0 PBMCs were sorted into HEPES-containing buffer (PBS with 2% FBS and 0.025 M HEPES) using BD FACSAria flow cytometry sorters. Acquired data was analyzed with FlowJo software.
Genomic DNA was extracted from sorted cells using QIAamp DNA Micro Kit (QIAGEN) and sent to Adaptive Biotechnologies for survey-level TCRβ sequencing (depth ˜60,000 reads) using their established immunoSEQ platform^7. Briefly, highly variable CDR3 regions on somatically rearranged human TCRβ chains were amplified with a two-step multiplex PCR approach using optimized set of primers that target the VDJ region spanning each unique CDR3B. A synthetic repertoire containing all possible V/J templates is used as a built-in control to quantify and correct PCR amplification biases. Processing of raw Illumina sequence reads, filtering, demultiplexing, clustering and mapping of CDR3 sequences and annotation of VDJ genes using IMGT database sequences were performed at Adaptive Biotechnologies and made available for download and analysis.

“CASSLALGTGDTEAFF: TCRβ CDR3 clone, TCRBV05-01+TCRBJ01-01, Donor 1” was tested, and the “Log10 Odds Ratio” value (Donor 1) was 2.98, the “No. of clone-specific productive templates, AIM+ CD4+ T (Total 21697)” value [1] was 410 and the “No. of clone-specific productive templates, AIM− CD4+ T (Total 49956)” value [1] was 1.
“CASSQTGQGYNEQFF: TCRβ CDR3 clone, TCRBV23-01+TCRBJ02-01, Donor 6” was tested, and the “Log10 Odds Ratio” value (Donor 6) was 1.49, the “No. of clone-specific productive templates, AIM+ CD4+ T (Total 34927)” value [2] was 308 and the “No. of clone-specific productive templates, AIM− CD4+ T (Total 45364)” value [2] was 13.
For “CAWSVGGPGANSPLHF: TCRβ CDR3 clone, TCRBV30-01+TCRBJ01-06, Donor 2”, the “Log10 Odds Ratio” value (Donor 2) was 1.16, the “No. of clone-specific productive templates, AIM+ CD4+ T (Total 18591)” value [3] was 369 and the “No. of clone-specific productive templates, AIM− CD4+ T (Total 7206)” value [3] was 10.
In the case of “CASSWDRTKFGNQPQHF: TCRβ CDR3 clone, TCRBV19-01+TCRBJ01-05, Donor 2”, the “Log10 Odds Ratio” value (Donor 2) is reported as 2.02, the “No. of clone-specific productive templates, AIM+ CD4+ T (Total 18591)” value [3] is reported as 268 and the “No. of clone-specific productive templates, AIM− CD4+ T (Total 7206)” value [3] is reported as 1.
“CASSELGLNTDTQYF: TCRβ CDR3 clone, TCRBV06-01+TCRBJ02-03, Donor 4” was tested, and the “Log10 Odds Ratio” value (Donor 4) was 1.11, the “No. of clone-specific productive templates, AIM+ CD4+ T (Total 25796)” value [4] was 2236 and the “No. of clone-specific productive templates, AIM− CD4+ T (Total 25928)” value [4] was 190.
In the case of “CASSELGTRPNEQFF: TCRβ CDR3 clone, TCRBV10-01+TCRBJ02-01, Donor 4”, the “Log10 Odds Ratio” value (Donor 4) is reported as 2.76, the “No. of clone-specific productive templates, AIM+ CD4+ T (Total 25796)” value [4] is reported as 558 and the “No. of clone-specific productive templates, AIM− CD4+ T (Total 25928)” value [4] is reported as 1.
With “CASSFTYDEQFF: TCRβ CDR3 clone, TCRBV07-09+TCRBJ02-01, Donor 5” the “Log10 Odds Ratio” value (Donor 5) was 1.66, the “No. of clone-specific productive templates, AIM+ CD4+ T (Total 31354)” value [5] was 457 and the “No. of clone-specific productive templates, AIM− CD4+ T (Total 48987)” value [5] was 16.
In the case of “CASSQTALYSGNTIYF: TCRβ CDR3 clone, TCRBV19-01+TCRBJ01-03, Donor 5”, the “Log10 Odds Ratio” value (Donor 5) is reported as 12.08, the “No. of clone-specific productive templates, AIM+ CD4+ T (Total 31354)” value [5] is reported as 777 and the “No. of clone-specific productive templates, AIM− CD4+ T (Total 48987)” value [5] is reported as 0.
In the case of “CATSEGGRGRGPGELFF: TCRβ CDR3 clone, TCRBV24-01+TCRBJ02-02, Donor 6”, the “Log10 Odds Ratio” value (Donor 6) is reported as 2.58, the “No. of clone-specific productive templates, AIM+ CD4+ T (Total 34927)” value [2] is reported as 292 and the “No. of clone-specific productive templates, AIM− CD4+ T (Total 45364)” value [2] is reported as 1.
With “CASRKQGLGYTEAFF: TCRβ CDR3 clone, TCRBV02-01+TCRBJ01-01, Donor 4” the “Log10 Odds Ratio” value (Donor 4) was 2.45, the “No. of clone-specific productive templates, AIM+ CD4+ T (Total 25796)” value [4] was 544 and the “No. of clone-specific productive templates, AIM− CD4+ T (Total 25928)” value [4] was 2.
For “CATSDFGKEGDEKLFF: TCRβ CDR3 clone, TCRBV24-01+TCRBJ01-04, Donor 5”, the “Log10 Odds Ratio” value (Donor 5) was 2.61, the “No. of clone-specific productive templates, AIM+ CD4+ T (Total 31354)” value [5] was 518 and the “No. of clone-specific productive templates, AIM− CD4+ T (Total 48987)” value [5] was 2.
With “CASSPRGAVNTEAFF: TCRβ CDR3 clone, TCRBV07-09+TCRBJ01-01, Donor 4” the “Log10 Odds Ratio” value (Donor 4) was 0.88, the “No. of clone-specific productive templates, AIM+ CD4+ T (Total 25796)” value [4] was 950 and the “No. of clone-specific productive templates, AIM− CD4+ T (Total 25928)” value [4] was 130.
In the case of “CASSPLLYSGNTIYF: TCRβ CDR3 clone, TCRBV07-02+TCRBJ01-03, Donor 3”, the “Log10 Odds Ratio” value (Donor 3) is reported as 12.09, the “No. of clone-specific productive templates, AIM+ CD4+ T (Total 16700)” value [6] is reported as 347 and the “No. of clone-specific productive templates, AIM− CD4+ T (Total 21770)” value [6] is reported as 0.
With “CSATGGTNEKLFF: TCRβ CDR3 clone, TCRBV20-X+TCRBJ01-04, Donor 6” the “Log10 Odds Ratio” value (Donor 6) was 1.59, the “No. of clone-specific productive templates, AIM+ CD4+ T (Total 34927)” value [2] was 500 and the “No. of clone-specific productive templates, AIM− CD4+ T (Total 45364)” value [2] was 17.
For “CSAMSPSGTGELFF: TCRβ CDR3 clone, TCRBV20-X+TCRBJ02-02, Donor 2”, the “Log10 Odds Ratio” value (Donor 2) was 12.19, the “No. of clone-specific productive templates, AIM+ CD4+ T (Total 18591)” value [3] was 549 and the “No. of clone-specific productive templates, AIM− CD4+ T (Total 7206)” value [3] was 0.
In the case of “CASSLRTGIINEQFF: TCRβ CDR3 clone, TCRBV05-01+TCRBJ02-01, Donor 5”, the “Log10 Odds Ratio” value (Donor 5) is reported as 11.77, the “No. of clone-specific productive templates, AIM+ CD4+ T (Total 31354)” value [5] is reported as 383 and the “No. of clone-specific productive templates, AIM− CD4+ T (Total 48987)” value [5] is reported as 0.
With “CATALAGGHEQYF: TCRβ CDR3 clone, TCRBV06-05+TCRBJ02-07, Donor 5” the “Log10 Odds Ratio” value (Donor 5) was 2.60, the “No. of clone-specific productive templates, AIM+ CD4+ T (Total 31354)” value [5] was 753 and the “No. of clone-specific productive templates, AIM− CD4+ T (Total 48987)” value [5] was 3.
With “CASSPDFSGANVLTF: TCRβ CDR3 clone, TCRBV05-06+TCRBJ02-06, Donor 6” the “Log10 Odds Ratio” value (Donor 6) was 2.17, the “No. of clone-specific productive templates, AIM+ CD4+ T (Total 34927)” value [2] was 339 and the “No. of clone-specific productive templates, AIM− CD4+ T (Total 45364)” value [2] was 3.
For “CASTATESSPLHF: TCRβ CDR3 clone, TCRBV12-03/12-04+TCRBJ01-06, Donor 5”, the “Log10 Odds Ratio” value (Donor 5) was 11.80, the “No. of clone-specific productive templates, AIM+ CD4+ T (Total 31354)” value [5] was 415 and the “No. of clone-specific productive templates, AIM− CD4+ T (Total 48987)” value [5] was 0.
“CSARWYNEQFF: TCRβ CDR3 clone, TCRBV20-01+TCRBJ02-01, Donor 3” was tested, and the “Log10 Odds Ratio” value (Donor 3) was 1.82, the “No. of clone-specific productive templates, AIM+ CD4+ T (Total 16700)” value [6] was 349 and the “No. of clone-specific productive templates, AIM− CD4+ T (Total 21770)” value [6] was 7.
